Experimental data as given in patent US10363239B2, “Method for inhibiting growth of cancer cells” (Pain Therapeutics, Inc., priority 2013, dated 2019).
Read-outs that look alike come from different tables or passages of the source.

Assays:
[1] = target: FLNA pentapeptide of SEQ ID NO: 1 (Bn-VAKGL) (Homo sapiens, UniProt P21333); experiment: FITC-NLX-based FLNA screening assay (inhibition of FITC-naloxone binding to Bn-VAKGL on streptavidin plates); settings: 10 nM FITC-NLX
mu opiate receptor (MOR) = experiment: MOR agonist activity using [35S]GTPγS binding assay in striatal membranes; format: biochemical; settings: for MOR agonist activity ([35S]GTPγS binding), FLNA-Binding Compound as Agonist 1 μM + BFNA: 1 μM compound + 1 μM β-funaltrexamine
Outline: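 Striatal membranes (200 μg) were preincubated 5 min at 30 °C in HEPES pH 7.5 with 100 mM NaCl, 1 mM MgCl2 and 0.5 nM [35S]GTPγS, then 5 min more with 0.1–10 μM compound. Gαo was immunoprecipitated and bound radioactivity counted by scintillation.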

[2] = read-out: Percent Binding Inhibition, FLNA-binding compound 0.01 μM
[3] = read-out: Percent Binding Inhibition, FLNA-binding compound 0.1 μM
[4] = read-out: Percent Binding Inhibition, FLNA-binding compound 1 μM
[5] = Series C-1, 0.1 μM compound, relative to DAMGO
[6] = Series C-1, 0.1 μM compound, [35S]GTPγS binding to Gαo, striatal membranes
[7] = Series C-1, 1 μM compound + 1 μM β-FNA
[8] = Series C-1, 1 μM compound + β-FNA, relative to DAMGO + BFNA
[9] = Series C-1, 1 μM compound, relative to DAMGO
[10] = Series C-1, 1 μM compound, [35S]GTPγS binding to Gαo, striatal membranes
[11] = FLNA-binding compound 0.01 μM, read-out: Percent Binding Inhibition
[12] = FLNA-binding compound 0.1 μM, read-out: Percent Binding Inhibition
[13] = FLNA-binding compound 1 μM, read-out: Percent Binding Inhibition
[14] = 0.1 μM compound relative to DAMGO
[15] = 1 μM compound + BFNA relative to DAMGO + BFNA
[16] = 1 μM compound relative to DAMGO

Compound | inhibition at 0.01 µM [1, 2] [%] | inhibition at 0.1 µM [1, 3] [%] | inhibition at 1 µM [1, 4] [%] | % DAMGO (0.1 μM) (mu opiate receptor (MOR); [5]) [%] | Concentration of FLNA-Binding Compound as Agonist 0.1 μM (mu opiate receptor (MOR); [6]) [%] | Concentration of FLNA-Binding Compound as Agonist 1 μM + BFNA (mu opiate receptor (MOR); [7]) [%] | % DAMGO + BFNA (mu opiate receptor (MOR); [8]) [%] | % DAMGO (1 μM) (mu opiate receptor (MOR); [9]) [%] | Concentration of FLNA-Binding Compound as Agonist 1 μM (mu opiate receptor (MOR); [10]) [%] | MOR agonist activity ([35S]GTPγS binding), FLNA-Binding Compound as Agonist 0.1 μM (mu opiate receptor (MOR); 0.1 μM compound) [%] | % DAMGO (0.1 μM) (mu opiate receptor (MOR); [14]) [%] | MOR agonist activity ([35S]GTPγS binding), FLNA-Binding Compound as Agonist 1 μM (mu opiate receptor (MOR); 1 μM compound) [%] | MOR agonist activity ([35S]GTPγS binding), FLNA-Binding Compound as Agonist 1 μM + BFNA (mu opiate receptor (MOR)) [%] | % DAMGO + BFNA (mu opiate receptor (MOR); [15]) [%] | % DAMGO (1 μM) (mu opiate receptor (MOR); [16]) [%] | other results
O=C(c1ccc([N+](=O)[O-])cc1)N1CCC2(CC1)OCCN2S(=O)(=O)c1ccc([N+](=O)[O-])cc1 [Compound C0022] | 34.5 | 37.6 | 43.9 | 113.5 | 194.3 | 13.4 | 25.7 | 123.2 | 328.7 | – | – | – | – | – | – | –
COc1ccc(S(=O)(=O)N2CCOC23CCN(S(=O)(=O)c2ccc(C(C)=O)cc2)CC3)cc1 [Compound C0047] | 30.8 | 35.2 | 41.4 | 98.1 | 142.2 | 80.1 | 182.0 | 88.5 | 206.1 | – | – | – | – | – | – | –
COc1ccc(S(=O)(=O)N2CCC3(CC2)OCCN3S(=O)(=O)c2ccc(C(C)=O)cc2)cc1 [Compound C0048] | 28.5 | 38.9 | 45.9 | 144.2 | 209.1 | 89.9 | 204.3 | 105.3 | 245.3 | – | – | – | – | – | – | –
CC1CCC(C(C)C)C(OCC(O)CN2CCN(CCc3ccccc3)CC2)C1 (stereo not drawn) [Compound A0020] | – | – | – | – | – | – | – | – | – | 168.6 | 100.9 | 217.4 | 67.4 | 194.2 | 88.7 | inhibition at 0.01 µM [1, 11]: 37.8%; inhibition at 0.1 µM [1, 12]: 38.8%; inhibition at 1 µM [1, 13]: 45.8%
CC1CCN(CC(O)COC2CC(C)CCC2C(C)C)CC1 (stereo not drawn) [Compound A0006] | – | – | – | – | – | – | – | – | – | 170.0 | 113.8 | 190.9 | 18.2 | 68.7 | 82.9 | inhibition at 0.01 µM [1, 11]: 37.9%; inhibition at 0.1 µM [1, 12]: 43.5%; inhibition at 1 µM [1, 13]: 47.5%
O=S(=O)(c1ccc(Br)cc1F)N1CCC2(CC1)OCCN2S(=O)(=O)c1ccc(Br)cc1F [Compound C0078] | 46.6 | 48 | 50.5 | 82.4 | 138.1 | 170.7 | 359.4 | 106.4 | 236.6 | – | – | – | – | – | – | –
C=CCN1CCC2(CC1)OCCN2S(=O)(=O)c1ccc(OC)cc1 [Compound C0091M] | 38.1 | 39.8 | 46.3 | – | – | – | – | – | – | – | – | – | – | – | – | % DAMGO (0.1 μM) (mu opiate receptor (MOR); Series C-2, 0.1 μM compound, relative to DAMGO): 118.1%; MOR agonist activity, percent [35S]GTPγS binding at the stated compound concentration (mu opiate receptor (MOR); Series C-2, 0.1 μM compound, [35S]GTPγS binding to Gαo, striatal membranes): 207.9%; MOR agonist activity, percent [35S]GTPγS binding at the stated compound concentration (mu opiate receptor (MOR); Series C-2, 1 μM compound + 1 μM β-FNA): 80.8%; % DAMGO + BFNA (mu opiate receptor (MOR); Series C-2, 1 μM compound + β-FNA, relative to DAMGO + BFNA): 367.3%; % DAMGO (1 μM) (mu opiate receptor (MOR); Series C-2, 1 μM compound, relative to DAMGO): 108.5%; MOR agonist activity, percent [35S]GTPγS binding at the stated compound concentration (mu opiate receptor (MOR); Series C-2, 1 μM compound, [35S]GTPγS binding to Gαo, striatal membranes): 274.4%
CC1CCC(C(C)C)C(OCC(O)CN2CC(C)OC(C)C2)C1 (stereo not drawn) [Compound A3333] | – | – | – | – | – | – | – | – | – | 170.7 | 88.9 | 328.3 | 65.9 | 136.7 | 101.0 | Percent Binding Inhibition ([1]; FLNA-binding compound 0.01 μM): 40.4%; Percent Binding Inhibition ([1]; FLNA-binding compound 0.1 μM): 48.5%; Percent Binding Inhibition ([1]; FLNA-binding compound 1 μM): 54.2%
